Laboratory results reported in patent publication US20120029187A1, “HALOALKYLSULFONANILIDE DERIVATIVE” (Nissan Chemical Industries, Ltd., priority 2009, published 2012).

Columns and labels:
Type in all cases: in vivo
barnyardgrass [1] = experiment: Test Example 1: herbicidal effects in preemergence treatment under submerged conditions; conditions: dose 2.52 g/a
How it was run: (§1)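 Alluvial soil was flooded to 4 cm, sown with barnyardgrass, bulrush and ducksalad, and planted with 2.5-leaf rice seedlings. On the seeding day, water-diluted emulsifiable concentrates were applied to the water surface at set doses (g/a). After three weeks in a 25 to 30° C. greenhouse, mortality was scored 0–5.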

bulrush [2] = experiment: as above; conditions: dose 2.52 g/a
How it was run: as §1

ducksalad [3] = experiment: as above; conditions: dose 2.52 g/a
How it was run: as §1

transplanted rice = experiment: Test Example 1: preemergence treatment under submerged conditions, effect on crop; conditions: dose 2.52 g/a
How it was run: as §1

barnyardgrass [4] = experiment: Test Example 2: herbicidal effects during the vegetation period under submerged conditions; conditions: treatment during the vegetation period under submerged conditions; dose 2.52 g/a
How it was run: (§2)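 Barnyardgrass, bulrush and ducksalad were co-sown in alluvial soil flooded to 4 cm and grown in a greenhouse at 25 to 30° C. At the 1- or 2-leaf stage, water-diluted emulsifiable concentrates went onto the water surface at set doses (g/a). Herbicidal effect was scored three weeks later on a graded scale.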

bulrush [5] = experiment: as above; conditions: treatment during the vegetation period under submerged conditions; dose 2.52 g/a
How it was run: as §2

ducksalad [6] = experiment: as above; conditions: treatment during the vegetation period under submerged conditions; dose 2.52 g/a
How it was run: as §2

Italian ryegrass [7] = experiment: Test Example 3: herbicidal effects in soil treatment; conditions: dose 3.2 g/a
How it was run: (§3)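 Seeds were sown in sterilized diluvial soil and covered with about 1.5 cm of soil. Compounds, formulated as emulsifiable concentrates and diluted with water, were sprayed evenly over the soil surface at set doses in g/a. Herbicidal effect was scored on a rating scale three weeks later.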

barnyardgrass [8] = experiment: as above; conditions: dose 3.2 g/a
How it was run: as §3

beadstraw [9] = experiment: as above; conditions: dose 3.2 g/a
How it was run: as §3

common chickweed [10] = experiment: as above; conditions: dose 3.2 g/a
How it was run: as §3

common lambsquater [11] = experiment: as above; conditions: dose 3.2 g/a
How it was run: as §3

common ragweed [12] = experiment: as above; conditions: dose 3.2 g/a
How it was run: as §3

giant foxtail [13] = experiment: as above; conditions: dose 3.2 g/a
How it was run: as §3

large crabgrass [14] = experiment: as above; conditions: dose 3.2 g/a
How it was run: as §3

posumbu knotweed [15] = experiment: as above; conditions: dose 3.2 g/a
How it was run: as §3

redroot pigweed [16] = experiment: as above; conditions: dose 3.2 g/a
How it was run: as §3

velvetleaf [17] = experiment: as above; conditions: dose 3.2 g/a
How it was run: as §3

water foxtail [18] = experiment: as above; conditions: dose 3.2 g/a
How it was run: as §3

Italian ryegrass [19] = experiment: Test Example 4: herbicidal effect in foliage treatment; conditions: dose 3.2 g/a, three weeks after application
How it was run: (§4)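 Seeds sown in sterilized diluvial soil under ~1.5 cm soil cover and grown 14 days in a greenhouse at 25 to 30° C. Emulsifiable concentrates diluted with water were then sprayed uniformly on foliage at predetermined doses (g/a). Herbicidal effect was scored three weeks after application on a graded evaluation scale.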

barnyardgrass [20] = experiment: as above; conditions: dose 3.2 g/a, three weeks after application
How it was run: as §4

beadstraw [21] = experiment: as above; conditions: dose 3.2 g/a, three weeks after application
How it was run: as §4

common chickweed [22] = experiment: as above; conditions: dose 3.2 g/a, three weeks after application
How it was run: as §4

common lambsquater [23] = experiment: as above; conditions: dose 3.2 g/a, three weeks after application
How it was run: as §4

common ragweed [24] = experiment: as above; conditions: dose 3.2 g/a, three weeks after application
How it was run: as §4

giant foxtail [25] = experiment: as above; conditions: dose 3.2 g/a, three weeks after application
How it was run: as §4

large crabgrass [26] = experiment: as above; conditions: dose 3.2 g/a, three weeks after application
How it was run: as §4

posumbu knotweed [27] = experiment: as above; conditions: dose 3.2 g/a, three weeks after application
How it was run: as §4

redroot pigweed [28] = experiment: as above; conditions: dose 3.2 g/a, three weeks after application
How it was run: as §4

velvetleaf [29] = experiment: as above; conditions: dose 3.2 g/a, three weeks after application
How it was run: as §4

water foxtail [30] = experiment: as above; conditions: dose 3.2 g/a, three weeks after application
How it was run: as §4

CCC(=O)N(c1ccccc1CN1COC2(CCC2)CC1=O)S(=O)(=O)C(F)(F)F [II-62]
A: barnyardgrass, herbicidal effect (evaluation scale 0-5) (barnyardgrass [1]): 5 (mortality of 90% or above (nearly complete death))
B: bulrush, herbicidal effect (evaluation scale 0-5) (bulrush [2]): 5 (mortality of 90% or above (nearly complete death))
C: ducksalad, herbicidal effect (evaluation scale 0-5) (ducksalad [3]): 5 (mortality of 90% or above (nearly complete death))
a: transplanted rice, effect on crop (evaluation scale 0-5) (transplanted rice): 0 (mortality of less than 5% (almost ineffective))
A: barnyardgrass, herbicidal effect (evaluation scale 0-5) (barnyardgrass [4]): 5 (mortality of 90% or above (nearly complete death))
B: bulrush, herbicidal effect (evaluation scale 0-5) (bulrush [5]): 5 (mortality of 90% or above (nearly complete death))
C: ducksalad, herbicidal effect (evaluation scale 0-5) (ducksalad [6]): 5 (mortality of 90% or above (nearly complete death))
H: Italian ryegrass, herbicidal effect (evaluation scale 0-5) (Italian ryegrass [7]): 5 (mortality of 90% or above (nearly complete death))
A: barnyardgrass, herbicidal effect (evaluation scale 0-5) (barnyardgrass [8]): 5 (mortality of 90% or above (nearly complete death))
O: beadstraw, herbicidal effect (evaluation scale 0-5) (beadstraw [9]): 4 (mortality of at least 70% and less than 90%)
N: common chickweed, herbicidal effect (evaluation scale 0-5) (common chickweed [10]): 5 (mortality of 90% or above (nearly complete death))
L: common lambsquater, herbicidal effect (evaluation scale 0-5) (common lambsquater [11]): 4 (mortality of at least 70% and less than 90%)
J: common ragweed, herbicidal effect (evaluation scale 0-5) (common ragweed [12]): 4 (mortality of at least 70% and less than 90%)
E: giant foxtail, herbicidal effect (evaluation scale 0-5) (giant foxtail [13]): 5 (mortality of 90% or above (nearly complete death))
D: large crabgrass, herbicidal effect (evaluation scale 0-5) (large crabgrass [14]): 5 (mortality of 90% or above (nearly complete death))
M: posumbu knotweed, herbicidal effect (evaluation scale 0-5) (posumbu knotweed [15]): 5 (mortality of 90% or above (nearly complete death))
K: redroot pigweed, herbicidal effect (evaluation scale 0-5) (redroot pigweed [16]): 4 (mortality of at least 70% and less than 90%)
I: velvetleaf, herbicidal effect (evaluation scale 0-5) (velvetleaf [17]): 5 (mortality of 90% or above (nearly complete death))
G: water foxtail, herbicidal effect (evaluation scale 0-5) (water foxtail [18]): 5 (mortality of 90% or above (nearly complete death))
H: Italian ryegrass, herbicidal effect (Italian ryegrass [19]): 4 (mortality of at least 70% and less than 90%)
A: barnyardgrass, herbicidal effect (barnyardgrass [20]): 5 (mortality of 90% or above (nearly complete death))
O: beadstraw, herbicidal effect (beadstraw [21]): 4 (mortality of at least 70% and less than 90%)
N: common chickweed, herbicidal effect (common chickweed [22]): 4 (mortality of at least 70% and less than 90%)
L: common lambsquater, herbicidal effect (common lambsquater [23]): 4 (mortality of at least 70% and less than 90%)
J: common ragweed, herbicidal effect (common ragweed [24]): 4 (mortality of at least 70% and less than 90%)
E: giant foxtail, herbicidal effect (giant foxtail [25]): 5 (mortality of 90% or above (nearly complete death))
D: large crabgrass, herbicidal effect (large crabgrass [26]): 5 (mortality of 90% or above (nearly complete death))
M: posumbu knotweed, herbicidal effect (posumbu knotweed [27]): 4 (mortality of at least 70% and less than 90%)
K: redroot pigweed, herbicidal effect (redroot pigweed [28]): 3 (mortality of at least 40% and less than 70%)
I: velvetleaf, herbicidal effect (velvetleaf [29]): 5 (mortality of 90% or above (nearly complete death))
G: water foxtail, herbicidal effect (water foxtail [30]): 5 (mortality of 90% or above (nearly complete death))
